Source: ChEMBL document CHEMBL1142130, “Quinolone resistance in Helicobacter pylori isolates in Germany” (2007)
Values after ≈ are worked out from the molar mass of the structure shown.

Experiments:
Format in all cases: functional
Helicobacter pylori [1] = experiment: Antimicrobial activity against ciprofloxacin-resistant Helicobacter pylori 4 containing gyrA C261G mutation by Etest method
Helicobacter pylori [2] = experiment: Antimicrobial activity against ciprofloxacin-resistant Helicobacter pylori 14 containing gyrA A272G mutation by Etest method
Helicobacter pylori [3] = experiment: Antimicrobial activity against ciprofloxacin-resistant Helicobacter pylori 12 containing gyrA G271A mutation by Etest method
Helicobacter pylori [4] = experiment: Antimicrobial activity against ciprofloxacin-resistant Helicobacter pylori 4 containing gyrA G271T mutation by Etest method
Helicobacter pylori [5] = experiment: Antimicrobial activity against ciprofloxacin-resistant Helicobacter pylori 26 containing gyrA C261A mutation by Etest method

With O=C(O)c1cn(C2CC2)c2cc(N3CCNCC3)c(F)cc2c1=O [CIPROFLOXACIN] the MIC (Helicobacter pylori [1]) was 4 µg/mL (≈ 12.1 µM), the MIC (Helicobacter pylori [2]) was 16 µg/mL (≈ 48.3 µM) and the MIC (Helicobacter pylori [3]) was 16 µg/mL (≈ 48.3 µM). The MIC (Helicobacter pylori [4]) was 8 µg/mL (≈ 24.1 µM) and the MIC (Helicobacter pylori [5]) was 4 µg/mL (≈ 12.1 µM).
